Data taken from PubChem BioAssay AID2060340 (Molecular Pharmacology Branch, DTP, NCI, 2025).
Values joined by “and” are separate entries in the source; they are usually repeats but may differ in a detail not shown here. Equal entries are not always repeated.

Test system: 349418-098-R-PDC spheroids, viability, % test/control
Test: Anticancer human tumor 349418-098-R-PDC patient-derived lung adenocarcinoma cell line growth inhibition [IpAb]
Conditions: spheroids with HUVEC and MSC; for viability, T/C: stronger effect = lower value
In short: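 Multi-cell spheroids of 60% tumour cells, 25% HUVEC and 15% MSC in ultra-low-attachment U-bottom wells, treated with agents combined with ipatasertib or abemaciclib. Half-log ranges top out near clinical Cmax, or 10 microM when Cmax is unknown.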
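Note: spheroids exposed to compounds for 7 days.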

## CC(C)n1nc(-c2ccc3oc(N)nc3c2)c2c(N)ncnc21 + CC(C)NCC(C(=O)N1CCN(c2ncnc3c2C(C)CC3O)CC1)c1ccc(Cl)cc1
Curve of first compound, second compound 0.1 µM
  IC50: 0.681 nM
Curve of first compound, second compound 0.316 µM
  IC50: < 0.316 nM
Curve of first compound, second compound 1 µM
  IC50: < 0.316 nM
Curve of first compound, second compound 3.16 µM
  IC50: < 0.316 nM
Curve of first compound, second compound 10 µM
  IC50: < 0.316 nM
Second compound 0.1 µM, first compound 0.000316 µM
  viability, T/C: 69.4%
Second compound 0.1 µM, first compound 0.001 µM
  viability, T/C: 40.3%
Second compound 0.1 µM, first compound 0.00316 µM
  viability, T/C: 14.5%
Second compound 0.1 µM, first compound 0.01 µM
  viability, T/C: 7.8%
Second compound 0.1 µM, first compound 0.0316 µM
  viability, T/C: 6.65%
Second compound 0.1 µM, first compound 0.1 µM
  viability, T/C: 6.26%
Second compound 0.316 µM, first compound 0.000316 µM
  viability, T/C: 31.8%
Second compound 0.316 µM, first compound 0.001 µM
  viability, T/C: 17.4%
Second compound 0.316 µM, first compound 0.00316 µM
  viability, T/C: 8.31%
Second compound 0.316 µM, first compound 0.01 µM
  viability, T/C: 5.95%
Second compound 0.316 µM, first compound 0.0316 µM
  viability, T/C: 5.66%
Second compound 0.316 µM, first compound 0.1 µM
  viability, T/C: 5.5%
Second compound 1 µM, first compound 0.000316 µM
  viability, T/C: 14.4%
Second compound 1 µM, first compound 0.001 µM
  viability, T/C: 8.54%
Second compound 1 µM, first compound 0.00316 µM
  viability, T/C: 5.9%
Second compound 1 µM, first compound 0.01 µM
  viability, T/C: 4.87%
Second compound 1 µM, first compound 0.0316 µM
  viability, T/C: 5.35%
Second compound 1 µM, first compound 0.1 µM
  viability, T/C: 4.7%
Second compound 3.16 µM, first compound 0.000316 µM
  viability, T/C: 10.7%
Second compound 3.16 µM, first compound 0.001 µM
  viability, T/C: 6.81%
Second compound 3.16 µM, first compound 0.00316 µM
  viability, T/C: 5.04%
Second compound 3.16 µM, first compound 0.01 µM
  viability, T/C: 4.7%
Second compound 3.16 µM, first compound 0.0316 µM
  viability, T/C: 4.32%
Second compound 3.16 µM, first compound 0.1 µM
  viability, T/C: 5.98%
Second compound 10 µM, first compound 0.000316 µM
  viability, T/C: 6.8%
Second compound 10 µM, first compound 0.001 µM
  viability, T/C: 5.96%
Second compound 10 µM, first compound 0.00316 µM
  viability, T/C: 5.29%
Second compound 10 µM, first compound 0.01 µM
  viability, T/C: 3.92%
Second compound 10 µM, first compound 0.0316 µM
  viability, T/C: 4.43%
Second compound 10 µM, first compound 0.1 µM
  viability, T/C: 4.42%

## Cn1ncc(Cl)c1-c1cc(C(=O)NC(CN)Cc2cccc(F)c2)sc1Cl (centres undefined)
Compound 0.0316 µM
  viability, T/C: 90% and 71.9%
Compound 0.1 µM
  viability, T/C: 64.6% and 67%
Compound 0.316 µM
  viability, T/C: 43% and 30.5%
Compound 1 µM
  viability, T/C: 10.9% and 16.7%
Compound 3.16 µM
  viability, T/C: 7.08% and 7.12%
Compound 10 µM
  viability, T/C: 0.13% and 0.32%
Curve of compound
  IC50: 200 nM and 169 nM

## CCCS(=O)(=O)Nc1ccc(F)c(C(=O)c2c[nH]c3ncc(-c4ccc(Cl)cc4)cc23)c1F
Compound 0.0316 µM
  viability, T/C: 69.3% and 61.6%
Compound 0.1 µM
  viability, T/C: 52% and 49.9%
Compound 0.316 µM
  viability, T/C: 51.7% and 55.5%
Compound 1 µM
  viability, T/C: 49.4% and 45.2%
Compound 3.16 µM
  viability, T/C: 50.4% and 46.2%
Compound 10 µM
  viability, T/C: 22.7% and 19.6%
Curve of compound
  IC50: 1850 nM and 1090 nM
